Laboratory results reported in PubChem BioAssay (NCI).
Values joined by “and” are separate entries in the source; they are usually repeats but may differ in a detail not shown here. Identical values can stand only once.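 Following 48 hours of exposure in 96-well plates, responses at five concentrations were used to interpolate endpoints linearly. GI50: concentration for 50% inhibition of growth. TGI is the concentration that stops growth completely.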

Experiments:
Test in all cases: NCI anticancer screen, dose series, 48 h
[1] = tested on: CCRF-CEM leukemia
[2] = tested on: DU-145 prostate
[3] = tested on: EKVX NSCLC
[4] = tested on: HS 578T breast
[5] = tested on: NCI-H226 lung
[6] = tested on: NCI-H460 lung
[7] = tested on: OVCAR-3 ovarian
[8] = tested on: OVCAR-5 ovarian
[9] = tested on: SW-620 colon
[10] = tested on: UO-31 renal

## O=C(c1ccco1)c1nc2cc(F)ccc2[n+]([O-])c1C(F)(F)F
[1]
  GI50: 29.9 µM
  TGI: > 100 µM
[2]
  GI50: 38.8 µM
  TGI: > 100 µM
[3]
  GI50: 18.6 µM
  TGI: 39.9 µM
[4]
  GI50: 97.4 µM
  TGI: > 100 µM
[5]
  GI50: 99.1 µM
  TGI: > 100 µM
[6]
  GI50: 41.8 µM
  TGI: > 100 µM
[7]
  GI50: 20.8 µM
  TGI: 46.7 µM
[8]
  GI50: 26.7 µM
  TGI: 90.6 µM
[9]
  GI50: > 100 µM
  TGI: > 100 µM
[10]
  GI50: 28.1 µM
  TGI: > 100 µM

## CN(C)CCOc1ccc(/C(=C(/CCCl)c2ccccc2)c2ccccc2)cc1
[1]
  GI50: 1.06 µM
  TGI: 2.85 µM and 23.5 µM
[2]
  GI50: 1.88 µM
  TGI: 18.1 µM and 33.2 µM
[3]
  GI50: 1.81 µM
  TGI: 21 µM and 29.4 µM
[4]
  GI50: 0.895 µM
[5]
  GI50: 1.34 µM
  TGI: 13.4 µM and 39.3 µM
[6]
  GI50: 0.845 µM
[7]
  GI50: 0.928 µM
[8]
  GI50: 1.52 µM
  TGI: 5.09 µM and 33.5 µM
[9]
  GI50: 0.898 µM
[10]
  GI50: 0.9 µM
  TGI: 13.8 µM and 30.9 µM

## Cc1cnc(/C=N\NC(N)=S)c2cccc(N)c12
[1]
  GI50: 1.82 µM
  TGI: > 24 µM
[2]
  GI50: 1.68 µM
  TGI: > 100 µM
[3]
  GI50: 3.15 µM
  TGI: > 100 µM and 53.6 µM
[4]
  GI50: > 58 µM
  TGI: > 100 µM
[5]
  GI50: 2.39 µM
  TGI: > 100 µM
[6]
  GI50: 2.61 µM
  TGI: > 37.7 µM
[7]
  GI50: 3.03 µM
  TGI: > 100 µM
[8]
  GI50: > 21.3 µM
  TGI: > 100 µM
[9]
  GI50: 3.78 µM
  TGI: > 100 µM
[10]
  GI50: 1.88 µM
  TGI: 10.3 µM and 4.4 µM

## COC(=O)c1ccc(NC(=O)Nc2ccc3oc(=O)c4ccccc4c3c2)cc1
[1]
  GI50: 0.177 µM
  TGI: 21.7 µM
[2]
  GI50: 56.1 µM
  TGI: > 100 µM
[3]
  GI50: > 100 µM
  TGI: > 100 µM
[4]
  TGI: 29.7 µM
[5]
  GI50: 64.1 µM
  TGI: > 100 µM
[6]
  GI50: 41.6 µM
  TGI: > 100 µM
[7]
  GI50: 29.5 µM
  TGI: 54.6 µM
[8]
  GI50: 97.7 µM
  TGI: > 100 µM
[9]
  GI50: 30.9 µM
  TGI: 98.3 µM
[10]
  GI50: 62.5 µM
  TGI: > 100 µM

## CN(C)c1ccc(/C=C(\C#N)c2nc3ccccc3n2C)cc1
[1]
  GI50: 3.36 µM
  TGI: 16 µM
[2]
  GI50: 2.99 µM
  TGI: 13.1 µM
[3]
  GI50: 8.65 µM
  TGI: > 100 µM
[4]
  GI50: 2.84 µM
  TGI: > 26.5 µM
[5]
  GI50: 9.22 µM
  TGI: > 81.3 µM
[6]
  GI50: 3.2 µM
  TGI: 17.9 µM
[7]
  GI50: 1.33 µM
  TGI: 3.73 µM
[8]
  GI50: 8.49 µM
  TGI: 49.8 µM
[9]
  GI50: 0.921 µM
  TGI: > 60.1 µM
[10]
  GI50: 6.96 µM
  TGI: > 100 µM

## O=C1c2ccccc2C(=Cc2ccccc2)c2ccccc21
[1]
  GI50: 2.77 µM
  TGI: 29 µM
[2]
  GI50: 2.44 µM
  TGI: 6.94 µM
[3]
  GI50: 2.93 µM
  TGI: 37.9 µM
[4]
  GI50: 3.9 µM
  TGI: > 100 µM
[5]
  GI50: 4.99 µM
  TGI: 20.4 µM
[6]
  GI50: 2.98 µM
  TGI: 15 µM
[7]
  GI50: 2.56 µM
  TGI: 9.11 µM
[8]
  GI50: 5.04 µM
  TGI: 16.9 µM
[9]
  GI50: 2.43 µM
  TGI: 13.8 µM
[10]
  GI50: 2.1 µM
  TGI: 10.2 µM

## CC(=O)c1cc2c(cc1Nc1c3ccccc3nc3occ(Cl)c13)OCO2
[1]
  GI50: 0.0468 µM
  TGI: 0.291 µM
[2]
  GI50: 0.227 µM
[3]
  GI50: 0.181 µM
  TGI: > 100 µM
[4]
  GI50: 0.109 µM
  TGI: > 69.6 µM
[5]
  GI50: 3.42 µM
[6]
  GI50: 0.27 µM
  TGI: > 40.1 µM
[7]
  GI50: 0.0725 µM
  TGI: 0.178 µM
[8]
  GI50: 0.616 µM
  TGI: > 100 µM
[9]
  GI50: 0.0344 µM
  TGI: > 100 µM
[10]
  GI50: 1.09 µM
  TGI: > 100 µM

## COc1ccc2c(c1)C(=O)C(=O)c1cc(O)c(OC)c(OC)c1-2
[1]
  GI50: 0.451 µM
  TGI: 2.65 µM and 2.92 µM
[2]
  GI50: 1.74 µM
  TGI: 1.75 µM and 3.12 µM
[3]
  GI50: 0.457 µM
  TGI: 2.09 µM and 1.68 µM
[4]
  GI50: 2.79 µM
  TGI: 2.78 µM and 8.57 µM
[5]
  GI50: 1.95 µM
  TGI: 14.3 µM and 3.9 µM
[6]
  GI50: 1.64 µM
  TGI: 9.97 µM and 3.16 µM
[7]
  GI50: 1.65 µM
  TGI: 3.63 µM and 3.11 µM
[8]
  GI50: 1.65 µM
  TGI: 2.42 µM and 3.13 µM
[9]
  GI50: 2.8 µM
  TGI: 3.18 µM and 9.14 µM
[10]
  TGI: 1.7 µM

## O=C(O)CCC(=O)c1ccc2ccc3cccc4ccc1c2c34
[1]
  TGI: > 100 µM
[2]
  TGI: > 100 µM
[3]
  TGI: > 100 µM
[4]
  TGI: > 100 µM
[5]
  TGI: > 100 µM
[6]
  TGI: > 100 µM
[7]
  TGI: > 100 µM
[8]
  TGI: > 100 µM
[9]
  TGI: > 100 µM
[10]
  TGI: > 100 µM

## CC/C=C\C/C=C\C[C@H](O)C/C=C1/C(=O)C=C[C@@H]1C/C=C\CCCC(=O)O
[1]
  GI50: 2.17 µM
  TGI: 14 µM
[2]
  GI50: 5.17 µM
  TGI: 19 µM
[3]
  GI50: 14.5 µM
  TGI: 30.5 µM
[4]
  GI50: 28.4 µM
  TGI: > 100 µM
[5]
  GI50: 2.57 µM
  TGI: 5.86 µM
[6]
  GI50: 3.84 µM
  TGI: > 100 µM
[7]
  GI50: 3.23 µM
  TGI: 12.7 µM
[8]
  GI50: 7.22 µM
  TGI: 30 µM
[9]
  GI50: 4.46 µM
  TGI: 70.6 µM
[10]
  GI50: 5.99 µM
  TGI: 20.3 µM

## O=C([O][Hg][CH2]C1COC([CH2][Hg][O]C(=O)c2ccccc2)CO1)c1ccccc1 (configuration not stated)
[1]
  GI50: 0.958 µM and 1.17 µM
  TGI: 3.64 µM
[2]
  GI50: 18.8 µM
  TGI: 33 µM
[3]
  GI50: 20.7 µM and 19.5 µM
  TGI: 35.8 µM and 34.9 µM
[4]
  GI50: 21.8 µM
  TGI: 82.6 µM
[5]
  GI50: 20.2 µM and 6.31 µM
  TGI: 39.1 µM and 34 µM
[6]
  GI50: 17.3 µM and 3.49 µM
  TGI: 33.4 µM and 21.6 µM
[7]
  GI50: 7.93 µM
  TGI: 21.9 µM
[8]
  GI50: 18 µM
  TGI: 31.9 µM
[9]
  GI50: 1.64 µM
  TGI: 3.04 µM
[10]
  GI50: 17.7 µM
  TGI: 31.5 µM

## CC(=O)OCC(=O)O[C@@H]1C[C@]2(C(C)C)O[C@@]1(C)[C@@H]1CC[C@@H](C)[C@H]1[C@@H]2OC(=O)/C=C/c1ccccc1
[1]
  GI50: 21.3 µM
  TGI: > 100 µM
[2]
  GI50: 18.4 µM
  TGI: 40.6 µM
[3]
  GI50: 13.8 µM
  TGI: 59.1 µM
[4]
  GI50: < 0.0116 µM
  TGI: 0.0363 µM
[5]
  GI50: 10.6 µM
  TGI: 37.1 µM
[6]
  GI50: 21.4 µM
  TGI: 60.1 µM
[7]
  GI50: 32.8 µM
  TGI: > 100 µM
[8]
  GI50: 15.5 µM
  TGI: 33.6 µM
[9]
  GI50: 31 µM
  TGI: > 100 µM
[10]
  GI50: 0.0336 µM
  TGI: 0.242 µM

## Cn1nnnc1N/N=C/c1ccccc1
[1]
  TGI: > 10 µM
[2]
  TGI: > 10 µM
[3]
  TGI: > 10 µM
[4]
  TGI: > 10 µM
[5]
  TGI: > 10 µM
[6]
  TGI: > 10 µM
[7]
  TGI: > 10 µM
[8]
  TGI: > 10 µM
[9]
  TGI: > 10 µM
[10]
  TGI: > 10 µM
